According to ChEMBL document CHEMBL1151757, “Synthesis, radiosynthesis, and biological evaluation of fluorine-18-labeled 2beta-carbo(fluoroalkoxy)-3beta-(3'-((Z)-2-haloethenyl)phenyl)nortropanes: candidate radioligands for in vivo imaging of the serotonin transporter with positron emission tomography” (J Med Chem, 2008):

How the values were obtained:
[1] = Ratio of drug uptake in midbrain to cerebellum in anesthetized cynomolgus monkey after 2.5 mins postinjection; format: ADME, organism-based, Macaca fascicularis; conditions: in vivo
[2] = Ratio of drug uptake in medulla to cerebellum in anesthetized cynomolgus monkey after 165 mins postinjection; format: ADME, organism-based, Macaca fascicularis; conditions: in vivo, 2.75 h
[3] = Drug uptake in anesthetized cynomolgus monkey brain cerebellum after 85 mins postinjection; format: ADME, organism-based, Macaca fascicularis; conditions: in vivo
[4] = Drug uptake in anesthetized cynomolgus monkey brain occipital lobe after 195 mins postinjection; format: ADME, organism-based, Macaca fascicularis; conditions: in vivo, 3.25 h
Putamen [5] = test: Drug uptake in anesthetized cynomolgus monkey brain putamen after 95 mins postinjection; format: ADME, organism-based, Macaca fascicularis; set-up: unit not given here; conditions: in vivo
Medulla [6] = test: Drug uptake in anesthetized cynomolgus monkey brain medulla after 27.5 mins postinjection; format: ADME, organism-based, Macaca fascicularis; conditions: in vivo
[7] = Drug uptake in anesthetized cynomolgus monkey brain occipital lobe after 45 mins postinjection; format: ADME, organism-based, Macaca fascicularis; conditions: in vivo, 0.75 h
[8] = Drug uptake in anesthetized cynomolgus monkey brain cerebellum after 205 mins postinjection; format: ADME, organism-based, Macaca fascicularis; conditions: in vivo
Midbrain [9] = test: Drug uptake in anesthetized cynomolgus monkey brain midbrain after 205 mins postinjection; format: ADME, organism-based, Macaca fascicularis; conditions: in vivo
[10] = Drug uptake in anesthetized cynomolgus monkey brain frontal lobe after 145 mins postinjection; format: ADME, organism-based, Macaca fascicularis; conditions: in vivo
[11] = Ratio of drug uptake in medulla to cerebellum in anesthetized cynomolgus monkey after 155 mins postinjection; format: ADME, organism-based, Macaca fascicularis; conditions: in vivo
[12] = Drug uptake in anesthetized cynomolgus monkey brain frontal lobe after 125 mins postinjection; format: ADME, organism-based, Macaca fascicularis; conditions: in vivo
Thalamus [13] = test: Drug uptake in anesthetized cynomolgus monkey brain thalamus after 105 mins postinjection; format: ADME, organism-based, Macaca fascicularis; set-up: unit not given here; conditions: in vivo, 1.75 h
[14] = Ratio of drug uptake in thalamus to cerebellum in anesthetized cynomolgus monkey after 9.5 mins postinjection; format: ADME, organism-based, Macaca fascicularis; conditions: in vivo
Caudate [15] = test: Drug uptake in anesthetized cynomolgus monkey brain caudate after 185 mins postinjection; format: ADME, organism-based, Macaca fascicularis, Caudate nucleus; conditions: in vivo
Midbrain [16] = test: Drug uptake in anesthetized cynomolgus monkey brain midbrain after 1.5 mins postinjection; format: ADME, organism-based, Macaca fascicularis; set-up: unit not given here; conditions: in vivo, 0.025 h
Midbrain [17] = test: Drug uptake in anesthetized cynomolgus monkey brain midbrain after 27.5 mins postinjection; format: ADME, organism-based, Macaca fascicularis; set-up: unit not given here; conditions: in vivo
[18] = Ratio of drug uptake in medulla to cerebellum in anesthetized cynomolgus monkey after 185 mins postinjection; format: ADME, organism-based, Macaca fascicularis; conditions: in vivo
[19] = Ratio of drug uptake in frontal lobe to cerebellum in anesthetized cynomolgus monkey after 145 mins postinjection; format: ADME, organism-based, Macaca fascicularis; conditions: in vivo
[20] = Drug uptake in anesthetized cynomolgus monkey brain cerebellum after 9.5 mins postinjection; format: ADME, organism-based, Macaca fascicularis; conditions: in vivo
Midbrain [21] = test: Drug uptake in anesthetized cynomolgus monkey brain midbrain after 9.5 mins postinjection; format: ADME, organism-based, Macaca fascicularis; set-up: unit not given here; conditions: in vivo
[22] = Drug uptake in anesthetized cynomolgus monkey brain frontal lobe after 175 mins postinjection; format: ADME, organism-based, Macaca fascicularis; conditions: in vivo
Midbrain [23] = test: Drug uptake in anesthetized cynomolgus monkey brain midbrain after 12.5 mins postinjection; format: ADME, organism-based, Macaca fascicularis; set-up: unit not given here; conditions: in vivo
[24] = Drug uptake in anesthetized cynomolgus monkey brain frontal lobe after 2.5 mins postinjection; format: ADME, organism-based, Macaca fascicularis; conditions: in vivo
Midbrain [25] = test: Drug uptake in anesthetized cynomolgus monkey brain midbrain after 155 mins postinjection; format: ADME, organism-based, Macaca fascicularis; conditions: in vivo
[26] = Drug uptake in anesthetized cynomolgus monkey brain occipital lobe after 4.5 mins postinjection; format: ADME, organism-based, Macaca fascicularis; conditions: in vivo, 0.075 h
Thalamus [27] = test: Drug uptake in anesthetized cynomolgus monkey brain thalamus after 185 mins postinjection; format: ADME, organism-based, Macaca fascicularis; conditions: in vivo
Thalamus [28] = test: Drug uptake in anesthetized cynomolgus monkey brain thalamus after 115 mins postinjection; format: ADME, organism-based, Macaca fascicularis; set-up: unit not given here; conditions: in vivo
[29] = Drug uptake in anesthetized cynomolgus monkey brain frontal lobe after 95 mins postinjection; format: ADME, organism-based, Macaca fascicularis; conditions: in vivo
[30] = Ratio of drug uptake in thalamus to cerebellum in anesthetized cynomolgus monkey after 135 mins postinjection; format: ADME, organism-based, Macaca fascicularis; conditions: in vivo, 2.25 h
Caudate [31] = test: Drug uptake in anesthetized cynomolgus monkey brain caudate after 215 mins postinjection; format: ADME, organism-based, Macaca fascicularis, Caudate nucleus; conditions: in vivo
Putamen [32] = test: Drug uptake in anesthetized cynomolgus monkey brain putamen after 225 mins postinjection; format: ADME, organism-based, Macaca fascicularis; conditions: in vivo, 3.75 h
Medulla [33] = test: Drug uptake in anesthetized cynomolgus monkey brain medulla after 0.5 mins postinjection; format: ADME, organism-based, Macaca fascicularis; conditions: in vivo
[34] = Drug uptake in anesthetized cynomolgus monkey brain occipital lobe after 3.5 mins postinjection; format: ADME, organism-based, Macaca fascicularis; conditions: in vivo
[35] = Ratio of drug uptake in midbrain to cerebellum in anesthetized cynomolgus monkey after 18.5 mins postinjection; format: ADME, organism-based, Macaca fascicularis; conditions: in vivo
Medulla [36] = test: Drug uptake in anesthetized cynomolgus monkey brain medulla after 2.5 mins postinjection; format: ADME, organism-based, Macaca fascicularis; conditions: in vivo
Medulla [37] = test: Drug uptake in anesthetized cynomolgus monkey brain medulla after 3.5 mins postinjection; format: ADME, organism-based, Macaca fascicularis; conditions: in vivo
Medulla [38] = test: Drug uptake in anesthetized cynomolgus monkey brain medulla after 175 mins postinjection; format: ADME, organism-based, Macaca fascicularis; conditions: in vivo
[39] = Ratio of drug uptake in caudate to cerebellum in anesthetized cynomolgus monkey after 135 mins postinjection; format: ADME, organism-based, Macaca fascicularis; conditions: in vivo, 2.25 h
[40] = Ratio of drug uptake in occipital lobe to cerebellum in anesthetized cynomolgus monkey after 135 mins postinjection; format: ADME, organism-based, Macaca fascicularis; conditions: in vivo, 2.25 h
[41] = Ratio of drug uptake in caudate to cerebellum in anesthetized cynomolgus monkey after 18.5 mins postinjection; format: ADME, organism-based, Macaca fascicularis; conditions: in vivo
Caudate [42] = test: Drug uptake in anesthetized cynomolgus monkey brain caudate after 22.5 mins postinjection; format: ADME, organism-based, Macaca fascicularis, Caudate nucleus; conditions: in vivo, 0.375 h
Caudate [43] = test: Drug uptake in anesthetized cynomolgus monkey brain caudate after 145 mins postinjection; format: ADME, organism-based, Macaca fascicularis, Caudate nucleus; conditions: in vivo
Pons [44] = test: Drug uptake in anesthetized cynomolgus monkey brain pons after 105 mins postinjection; format: ADME, organism-based, Macaca fascicularis; conditions: in vivo, 1.75 h
Caudate [45] = test: Drug uptake in anesthetized cynomolgus monkey brain caudate after 65 mins postinjection; format: ADME, organism-based, Macaca fascicularis, Caudate nucleus; conditions: in vivo
[46] = Drug uptake in anesthetized cynomolgus monkey brain frontal lobe after 0.5 mins postinjection; format: ADME, organism-based, Macaca fascicularis; conditions: in vivo
Caudate [47] = test: Drug uptake in anesthetized cynomolgus monkey brain caudate after 115 mins postinjection; format: ADME, organism-based, Macaca fascicularis, Caudate nucleus; conditions: in vivo
Pons [48] = test: Drug uptake in anesthetized cynomolgus monkey brain pons after 225 mins postinjection; format: ADME, organism-based, Macaca fascicularis; conditions: in vivo, 3.75 h
Caudate [49] = test: Drug uptake in anesthetized cynomolgus monkey brain caudate after 85 mins postinjection; format: ADME, organism-based, Macaca fascicularis, Caudate nucleus; conditions: in vivo
Midbrain [50] = test: Drug uptake in anesthetized cynomolgus monkey brain midbrain after 225 mins postinjection; format: ADME, organism-based, Macaca fascicularis; conditions: in vivo, 3.75 h
[51] = Drug uptake in anesthetized cynomolgus monkey brain cerebellum after 27.5 mins postinjection; format: ADME, organism-based, Macaca fascicularis; conditions: in vivo
[52] = Drug uptake in anesthetized cynomolgus monkey brain frontal lobe after 65 mins postinjection; format: ADME, organism-based, Macaca fascicularis; conditions: in vivo
[53] = Ratio of drug uptake in pons to cerebellum in anesthetized cynomolgus monkey after 18.5 mins postinjection; format: ADME, organism-based, Macaca fascicularis; conditions: in vivo
Pons [54] = test: Drug uptake in anesthetized cynomolgus monkey brain pons after 6.5 mins postinjection; format: ADME, organism-based, Macaca fascicularis; conditions: in vivo
Medulla [55] = test: Drug uptake in anesthetized cynomolgus monkey brain medulla after 1.5 mins postinjection; format: ADME, organism-based, Macaca fascicularis; conditions: in vivo, 0.025 h
Thalamus [56] = test: Drug uptake in anesthetized cynomolgus monkey brain thalamus after 205 mins postinjection; format: ADME, organism-based, Macaca fascicularis; conditions: in vivo
Caudate [57] = test: Drug uptake in anesthetized cynomolgus monkey brain caudate after 135 mins postinjection; format: ADME, organism-based, Macaca fascicularis, Caudate nucleus; conditions: in vivo, 2.25 h
Caudate [58] = test: Drug uptake in anesthetized cynomolgus monkey brain caudate after 105 mins postinjection; format: ADME, organism-based, Macaca fascicularis, Caudate nucleus; conditions: in vivo, 1.75 h
[59] = Ratio of drug uptake in caudate to cerebellum in anesthetized cynomolgus monkey after 9.5 mins postinjection; format: ADME, organism-based, Macaca fascicularis; conditions: in vivo
Medulla [60] = test: Drug uptake in anesthetized cynomolgus monkey brain medulla after 165 mins postinjection; format: ADME, organism-based, Macaca fascicularis; conditions: in vivo, 2.75 h
Medulla [61] = test: Drug uptake in anesthetized cynomolgus monkey brain medulla after 4.5 mins postinjection; format: ADME, organism-based, Macaca fascicularis; conditions: in vivo, 0.075 h
Pons [62] = test: Drug uptake in anesthetized cynomolgus monkey brain pons after 235 mins postinjection; format: ADME, organism-based, Macaca fascicularis; conditions: in vivo
Putamen [63] = test: Drug uptake in anesthetized cynomolgus monkey brain putamen after 27.5 mins postinjection; format: ADME, organism-based, Macaca fascicularis; set-up: unit not given here; conditions: in vivo
Thalamus [64] = test: Drug uptake in anesthetized cynomolgus monkey brain thalamus after 12.5 mins postinjection; format: ADME, organism-based, Macaca fascicularis; set-up: unit not given here; conditions: in vivo
[65] = Ratio of drug uptake in putamen to cerebellum in anesthetized cynomolgus monkey after 235 mins postinjection; format: ADME, organism-based, Macaca fascicularis; conditions: in vivo
[66] = Ratio of drug uptake in medulla to cerebellum in anesthetized cynomolgus monkey after 35 mins postinjection; format: ADME, organism-based, Macaca fascicularis; conditions: in vivo
[67] = Drug uptake in anesthetized cynomolgus monkey brain occipital lobe after 155 mins postinjection; format: ADME, organism-based, Macaca fascicularis; conditions: in vivo
Putamen [68] = test: Drug uptake in anesthetized cynomolgus monkey brain putamen after 6.5 mins postinjection; format: ADME, organism-based, Macaca fascicularis; set-up: unit not given here; conditions: in vivo

Compound O=C(OCC[18F])C1C2CCC(CC1c1cccc(/C=C\Br)c1)N2 (stereo not drawn) has a Ratio [1] of 1.3, a Ratio [2] of 1.8 and a Drug uptake [3] of 3.17. For the same compound, the Drug uptake [4] was 2.02, the Drug uptake (Putamen [5]) was 4.83 and the Drug uptake (Medulla [6]) was 4.57. For the same compound, the Drug uptake [7] was 3.55, the Drug uptake [8] was 1.8 and the Drug uptake (Midbrain [9]) was 4. The Drug uptake [10] was 2.52, the Ratio [11] was 1.7 and the Drug uptake [12] was 2.69. The Drug uptake (Thalamus [13]) was 4.23, the Ratio [14] was 0.9 and the Drug uptake (Caudate [15]) was 3.28. It also gave a Drug uptake (Midbrain [16]) of 0.08, a Drug uptake (Midbrain [17]) of 4.53 and a Ratio [18] of 1.9. The Ratio [19] was 1.1, the Drug uptake [20] was 3.17 and the Drug uptake (Midbrain [21]) was 3.41. It also gave a Drug uptake [22] of 2.19, a Drug uptake (Midbrain [23]) of 3.83 and a Drug uptake [24] of 0.22. For the same compound, the Drug uptake (Midbrain [25]) was 4.54, the Drug uptake [26] was 1.32 and the Drug uptake (Thalamus [27]) was 3.48. For the same compound, the Drug uptake (Thalamus [28]) was 4.22, the Drug uptake [29] was 2.75 and the Ratio [30] was 1.7. The Drug uptake (Caudate [31]) was 2.85, the Drug uptake (Putamen [32]) was 3 and the Drug uptake (Medulla [33]) was 0. For the same compound, the Drug uptake [34] was 0.64, the Ratio [35] was 1.2 and the Drug uptake (Medulla [36]) was 0.61. It also gave a Drug uptake (Medulla [37]) of 1.26, a Drug uptake (Medulla [38]) of 3.62 and a Ratio [39] of 1.5. The Ratio [40] was 1.1, the Ratio [41] was 0.8 and the Drug uptake (Caudate [42]) was 3.22. The Drug uptake (Caudate [43]) was 3.52, the Drug uptake (Pons [44]) was 4.34 and the Drug uptake (Caudate [45]) was 4.08. It also gave a Drug uptake [46] of 0, a Drug uptake (Caudate [47]) of 4.06 and a Drug uptake (Pons [48]) of 2.77. For the same compound, the Drug uptake (Caudate [49]) was 4.06, the Drug uptake (Midbrain [50]) was 3.74 and the Drug uptake [51] was 3.8. The Drug uptake [52] was 2.94, the Ratio [53] was 1.1 and the Drug uptake (Pons [54]) was 2.79. The Drug uptake (Medulla [55]) was 0.08, the Drug uptake (Thalamus [56]) was 3.3 and the Drug uptake (Caudate [57]) was 3.74. The Drug uptake (Caudate [58]) was 4.01, the Ratio [59] was 0.7 and the Drug uptake (Medulla [60]) was 3.94. It also gave a Drug uptake (Medulla [61]) of 2.07, a Drug uptake (Pons [62]) of 3.08 and a Drug uptake (Putamen [63]) of 4.67. The Drug uptake (Thalamus [64]) was 3, the Ratio [65] was 1.8 and the Ratio [66] was 1.3. For the same compound, the Drug uptake [67] was 2.67 and the Drug uptake (Putamen [68]) was 3.01.
